Structures are written as SMILES.

The subject of assay [1] is KRAS G12C in NCI-H358 cells. As to the kind of experiment: pERK inhibition assay, NCI-H358. In kind it is cell-based, human. The conditions noted are these: Homo sapiens, 4 hours incubation. The essentials: (§1)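 NCI-H358, AGS and SW620 cells in RPMI-1640/10% FBS were plated overnight, then exposed to compound (0.5% DMSO final) for 4 h. After fixation and permeabilization, phospho-ERK was quantified by in-cell ELISA (HRP secondary, TMB, OD450); IC50 from a 4-parameter sigmoidal fit.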

Assay [2] has as its target KRAS G12V binding to BRAF (Homo sapiens (Human), UniProt P01116+P62937, G12V). The assay is described as follows: KRAS-BRAF with CYPA (50 nM) interaction assay (TR-FRET), G12V. As to conditions: GMPPNP loaded 6His-KRAS, GST-BRAF RBD. How it is done:
(§2) In this example, TR-FRET was also used to measure the compound or compound-CYPA dependent disruption of the KRAS G12C-BRAF complex. This protocol was also used to measure disruption of KRAS G12D or KRAS G12V binding to BRAF by a compound of the invention, respectively. In assay buffer containing 25 mM HEPES PH=7.4 (4-(2-hydroxyethyl)-1-piperazineethanesulfonic acid, Thermo, 15630080), 0.002% Tween20, 0.1% BSA, 100 mM NaCl, 5 mM MgCl2, 10 μM GMPPNP (Guanosine 5'-[β,γ-imido]triphosphate trisodium salt hydrate, Sigma, G0635), tagless CYPA, GMPPNP loaded 6His-KRAS proteins, and GST-BRAF^RBD were mixed in a well of a 384-well assay plate at final concentrations of 50 nM, 6.25 nM and 1 nM, respectively. Compound was present in plate wells as a 16-point 3-fold dilution series starting at a final concentration of 10 μM and incubated for 3 hours. A mixture of MAb Anti-6His-XL665 (Cisbio, 61HISXLB) and Mab anti-GST-TB cryptate (Cisbio, 61GSTTLB) was then added at a final concentration of 6.67 nM and 0.21 nM, respectively, and the plate was incubated for an additional 1.5 hours. TR-FRET signal was read on a […] microplate reader (Ex320 nm, Em 665/615 nm). Compounds that facilitate disruption of the KRAS-BRAF complex were identified as those eliciting a decrease in the TR-FRET ratio relative to DMSO control wells.
For orientation: TR-FRET usually uses a lanthanide donor and a delayed reading to cut background.

The next assay has as its system NCI-H358 cells. The assay is described as follows: Cell viability assay, NCI-H358. It counts as cell-based, human. As to conditions: Homo sapiens, NCI-H358, 72 hours, Cell Counting Kit-8, read-out: G12C IC50. An outline of the steps:
(§3)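 Cells were plated at 5,000 (NCI-H358) or 2,000 (AGS, SW620) per well and incubated overnight. They were then treated with compound in 0.5% DMSO for 72 h. Viability was read with CCK-8 as OD450 minus OD650 after 2 h, and IC50 came from a 4-parameter sigmoidal fit.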

The next assay has as its system KRAS G12D in AGS cells. The assay is described as follows: pERK inhibition assay, AGS. In kind it is cell-based, human. As to conditions: Homo sapiens, 4 hours incubation. An outline of the steps:
as §1

Assay [3] concerns the target KRAS G12D binding to BRAF (Homo sapiens (Human), UniProt P01116+P62937, G12D). The assay is described as follows: KRAS-BRAF with CYPA (50 nM) interaction assay (TR-FRET), G12D. As to conditions: GMPPNP loaded 6His-KRAS, GST-BRAF RBD. How it is done: as §2
For assay [4], the target named is T1, KRAS G12C-BRAF complex (Homo sapiens (Human), UniProt P01116+P62937, G12C). As to the kind of experiment: KRAS G12C-BRAF NanoBit assay. It counts as cell-based. The conditions noted are these: HEK293 cells, SmBit-KRAS G12C and BRAF RBD-LgBit, 3 hours incubation. The protocol: This assay is to measure the ability of tested compounds in disruption of the KRAS G12C-BRAF complex at the cellular level, we established the NanoBit cellular assay in mammalian HEK293 (ATCC) cells. HEK293 cells were grown and maintained using DMEM medium (Thermo Fisher Scientific) with 10% fetal bovine serum and 1% penicillin/streptomycin. Both KRAS G12C and BRAF RBD were cloned into the NanoBit vectors ([…] vectors system, Promega) with the orientations SmBit-KRAS G12C and BRAF RBD-LgBit, respectively, and co-transfected into HEK293 cells. Cells were then selected with 100 μg/mL Hygromycin B (10687010, Thermo Fisher) and Blasticidin (5 μg/mL) for 4 weeks to get the stable cell pool. On the day of the assay, 75 nL of compound solution was presented in a 384-well assay plate as a 16-point 3-fold dilution starting from a final concentration of 30 μM in DMSO. Then cells were seeded at 10,000 cells/25 μL/well in a 384-well plate. After 3 hours of incubation, 6 μL of volume of Nano-Glo® Live Cell Substrate (Promega) was added into each well. Monitor luminescence using ultra384 model in Envision at 20 minutes. Compounds that facilitate disruption of the KRAS G12C-BRAF RBD complex were identified as those eliciting a decrease of luminescence relative to DMSO control wells.

In assay [5] the target is T1, KRAS G12C-BRAF complex. The assay is described as follows: KRAS-BRAF with CYPA (50 nM) interaction assay (TR-FRET), G12C. It counts as binding. The conditions noted are these: GMPPNP loaded 6His-KRAS, GST-BRAF RBD. The protocol:
as §2

The next assay has as its system AGS cells. The assay is described as follows: Cell viability assay, AGS. In kind it is cell-based, human. The conditions noted are these: Homo sapiens, 72 hours, Cell Counting Kit-8, read-out: G12D IC50. The essentials: as §3
In general terms: Formazan colour is commonly taken as a measure of viable cells.

Another assay relates to KRAS G12V in SW620. As to the kind of experiment: pERK inhibition assay, SW620. As to conditions: Homo sapiens, SW-620, SW620 cells, 4 hours incubation. It counts as cell-based, human. An outline of the steps: as §1
Another assay deals with SW620 cells. As to the kind of experiment: Cell viability assay, SW620. In kind it is cell-based, human. The conditions noted are these: Homo sapiens, SW-620, SW620, 72 hours, Cell Counting Kit-8, read-out: G12V IC50. The essentials: as §3

KRAS G12D binding to BRAF, sequence (P01116-2 other isoform, or with tags, fused parts or gaps G12D): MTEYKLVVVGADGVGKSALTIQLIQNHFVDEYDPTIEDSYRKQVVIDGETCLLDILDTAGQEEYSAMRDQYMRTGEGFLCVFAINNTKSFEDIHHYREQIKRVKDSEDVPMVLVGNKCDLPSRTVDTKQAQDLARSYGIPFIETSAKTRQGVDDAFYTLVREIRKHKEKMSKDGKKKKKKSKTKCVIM
KRAS G12D binding to BRAF, sequence (P62937 whole entry): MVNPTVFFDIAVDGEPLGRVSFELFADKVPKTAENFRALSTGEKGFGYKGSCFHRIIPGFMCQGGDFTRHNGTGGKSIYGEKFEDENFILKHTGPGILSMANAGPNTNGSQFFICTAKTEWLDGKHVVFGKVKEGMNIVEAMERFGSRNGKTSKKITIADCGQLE
T1 sequence (P01116-2 other isoform, or with tags, fused parts or gaps G12C): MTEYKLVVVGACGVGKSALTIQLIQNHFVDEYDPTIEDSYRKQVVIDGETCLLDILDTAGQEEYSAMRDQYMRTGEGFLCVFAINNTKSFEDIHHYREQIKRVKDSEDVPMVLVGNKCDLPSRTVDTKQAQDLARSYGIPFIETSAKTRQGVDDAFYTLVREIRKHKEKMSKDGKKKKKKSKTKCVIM
T1 sequence (P62937 whole entry): as the sequence (P62937 whole entry) above
KRAS G12V binding to BRAF, sequence (P01116-2 other isoform, or with tags, fused parts or gaps G12V): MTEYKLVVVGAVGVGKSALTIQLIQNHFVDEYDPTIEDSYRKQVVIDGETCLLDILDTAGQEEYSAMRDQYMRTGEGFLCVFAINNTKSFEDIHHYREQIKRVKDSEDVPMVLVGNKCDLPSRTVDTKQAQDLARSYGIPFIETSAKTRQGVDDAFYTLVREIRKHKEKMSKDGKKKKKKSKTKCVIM
KRAS G12V binding to BRAF, sequence (P62937 whole entry): as the sequence (P62937 whole entry) above

Regarding `CCn1c(-c2cc(N3CCN(C)CC3)cnc2[C@H](C)OC)c2c3cc(ccc31)-c1cc(O)cc(c1)C[C@H](NC(=O)[C@H](C(C)C)N(C)C(=O)[C@H]1CCN(C(=O)[C@H](F)Cl)C1)C(=O)N1CCC[C@H](N1)C(=O)OCC(C)(C)C2` (atropisomer, axis not shown; (M)) [Example 12, (3S)-1-[(2R)-2-chloro-2-fluoro-acetyl]-N-[(1S)-1-[[(8S,14S)-22-ethyl-4-hydroxy-(21M)-21-[2-[(1S)-1-methoxyethyl]-5-(4-methylpiperazin-1-yl)-3-pyridyl]-18,18-dimethyl-9,15-dioxo-16-oxa-10,22,28-triazapentacyclo[18.5.2.12,6.110,14.023,27]nonacosa-1(26),2,4,6(29),20,23(27),24-heptaen-8-yl]carbamoyl]-2-methyl-propyl]-N-methyl-pyrrolidine-3-carboxamide], the IC50 in assay [1] was determined as 6 nM; in [2], 3 nM; with NCI-H358 cells, 5 nM; with KRAS G12D in AGS cells, 10 nM; in assay [3] it was 6 nM; at KRAS G12C-BRAF complex [4], 37 nM. Moreover, the 50% inhibitory concentration (IC50) at KRAS G12C-BRAF complex [5] was 2 nM; in the assay with AGS cells, 16 nM; with KRAS G12V in SW620, 12 nM; in the assay with SW620 cells, 16 nM.

With `CCn1c(-c2cccnc2[C@H](C)OC)c2c3cc(ccc31)-c1cc(O)cc(c1)C[C@H](NC(=O)[C@H](C(C)C)N(C)C(=O)[C@H]1CCN(C(=O)C(F)Cl)C1)C(=O)N1CCC[C@H](N1)C(=O)OCC(C)(C)C2` (stereo partly drawn) [Example 2, (3S)-1-[(2R)-2-chloro-2-fluoro-acetyl]-N-[(1S)-1-[[(8S,14S)-22-ethyl-4-hydroxy-(21M)-21-[2-[(1S)-1-methoxyethyl]-3-pyridyl]-18,18-dimethyl-9,15-dioxo-16-oxa-10,22,28-triazapentacyclo[18.5.2.12,6.110,14.023,27]nonacosa-1(26),2,4,6(29),20,23(27),24-heptaen-8-yl]carbamoyl]-2-methyl-propyl]-N-methyl-pyrrolidine-3-carboxamide], the 50% inhibitory concentration (IC50) came to 3 nM in assay [1]; 25 nM in assay [2]; 2 nM with NCI-H358 cells; 56 nM in the assay with KRAS G12D in AGS cells; 298 nM in [3]; 68 nM on KRAS G12C-BRAF complex [4]. Further, the concentration for half-maximal inhibition (IC50) came out at 6 nM at KRAS G12C-BRAF complex [5], 83 nM with AGS cells, 37 nM in the assay on KRAS G12V in SW620 and 156 nM in the assay on SW620 cells.

For the compound `CCn1c(-c2cc(N3CCN(C)CC3)cnc2[C@H](C)OC)c2c3cc(ccc31)-c1csc(n1)C[C@H](NC(=O)[C@H](C(C)C)N1CCCC3(CCN(C(=O)[C@H](F)Cl)C3)C1=O)C(=O)N1CCC[C@H](N1)C(=O)OCC(C)(C)C2` (stereo partly drawn) [Example 18, (2S)-2-[2-[(2R)-2-chloro-2-fluoro-acetyl]-6-oxo-2,7-diazaspiro[4.5]decan-7-yl]-N-[(7S,13S)-21-ethyl-(20M)-20-[2-[(1S)-1-methoxyethyl]-5-(4-methylpiperazin-1-yl)-3-pyridyl]-17,17-dimethyl-8,14-dioxo-15-oxa-4-thia-9,21,27,28-tetrazapentacyclo[17.5.2.12,5.19,13.022,26]octacosa-1(25),2,5(28),19,22(26),23-hexaen-7-yl]-3-methyl-butanamide], the IC50 in assay [1] is 3 nM; in [2], > 10000 nM; in the assay with NCI-H358 cells, 0.7 nM; in the assay with KRAS G12D in AGS cells, 26 nM; in [3] it was > 10000 nM; on KRAS G12C-BRAF complex [4], 20 nM. Further, the IC50 on KRAS G12C-BRAF complex [5] came out at 68 nM; with AGS cells, 19 nM; in the assay on KRAS G12V in SW620, 28 nM; in the assay with SW620 cells, 26 nM.

Broadly, the IC50 is the midpoint of a concentration-inhibition curve.

The record behind these values is patent US20250163072A1, “MACROCYCLIC COMPOUNDS FOR THE TREATMENT OF CANCER” (Hoffmann-La Roche Inc., priority 2021, published 2025).
